Laboratory results published in patent EP0320095A2, “Bilirubin degrading enzymes” (HEALTH & RESEARCH SERVICES INC., priority 1987, dated 1989).
Blank lines part the entries; values can stand above or below the molecule they belong to.

Tests used:
[1] = test system: lime enzyme preparation; assay: Effect of common blood components on the lime enzyme reaction; type: biochemical, Citrus aurantifolia
Experimental: The bilirubin-degrading assay as described in Example 2 was carried out using a lime enzyme preparation obtained as described in Example 1. Urate (at either 1.2 mM or 297 µM) and creatinine (88.4 and 176.8 µM) in a serum-based matrix had no effect on either the rate or extent of bilirubin degradation by the Citrus enzyme. […] Tests that are interfered severely by bilirubin include e.g. uric acid, cholesterol, glucose, triglycerides, to mention just a few (See for example, Spain and Wu, Clin. Chem. 32:518, 1986). Also, in practice, one will use much higher levels of the enzyme than those used here (5-10 µL/assay, representing about 0.1-0.2 mg protein). In such cases, the effects on initial rates will most likely be overcome or reduced to well within tolerable limits.

[2] = test system: lime enzyme preparation; assay: Effects of common enzyme cofactors on the lime enzyme; type: biochemical, Citrus aurantifolia; settings: 1 mM final concentration
Experimental: (§1) For the orange enzyme preparation, however, 1mM ATP inhibited the activity by almost 50%.

[3] = test system: orange enzyme preparation; assay: Effects of common enzyme cofactors on the orange enzyme; type: biochemical, Citrus sinensis; settings: 1mM
Experimental: as §1

[4] = test system: orange enzyme preparation; assay: Effect of common blood components on the orange enzyme reaction; type: biochemical, Citrus sinensis
Experimental: The bilirubin-degrading assay as described under (A) was carried out using an orange enzyme preparation obtained as described in Example 1. […] It is to be noted that the amount of enzyme used for removing interferences can be increased, if desired, to speed up the process. […]

effect on the rate or extent of bilirubin degradation ([1]; at either 1.2 mM or 297 µM in a serum-based matrix): no effect
SMILES: Oc1nc(O)c2nc(O)[nH]c2n1 [Urate]

effect on the enzyme in the normal bilirubin-degrading assay [2]: no demonstrable effect
SMILES: NC(=O)C1=CN([C@@H]2O[C@H](COP(=O)(O)OP(=O)(O)OC[C@H]3O[C@@H](n4cnc5c(N)ncnc54)[C@H](O)[C@@H]3O)[C@@H](O)[C@H]2O)C=CC1 [NADH]

effect on the enzyme in the normal bilirubin-degrading assay [2]: no demonstrable effect
SMILES: Nc1ncnc2c1ncn2[C@@H]1O[C@H](COP(=O)(O)O)[C@@H](O)[C@H]1O [AMP]

effect on the enzyme in the normal bilirubin-degrading assay [2]: no demonstrable effect
SMILES: NC(=O)c1ccc[n+]([C@@H]2O[C@H](COP(=O)([O-])OP(=O)(O)OC[C@H]3O[C@@H](n4cnc5c(N)ncnc54)[C@H](O)[C@@H]3O)[C@@H](O)[C@H]2O)c1 [NAD]

effect on the enzyme in the normal bilirubin-degrading assay [2]: no demonstrable effect
SMILES: Nc1ncnc2c1ncn2[C@@H]1O[C@H](COP(=O)(O)OP(=O)(O)O)[C@@H](O)[C@H]1O [ADP]

SMILES: Nc1ncnc2c1ncn2[C@@H]1O[C@H](COP(=O)(O)OP(=O)(O)OP(=O)(O)O)[C@@H](O)[C@H]1O [ATP]
effect on the enzyme in the normal bilirubin-degrading assay [2]: no demonstrable effect
activity inhibited [3]: ~50%

effect on reaction extent ([1]; 30-40 min. incubation, serum-like matrix): not significantly affected
slow down of the initial rate of the enzymic reaction on unconjugated bilirubin ([1]; elevated levels (cholesterol e.g. 11 mM or 400 mg/dL)): 10-20%
overall yield of the enzymic reaction, of the control value ([4]; elevated cholesterol): 90-95%
initial rate retarded ([4]; elevated levels, for example at 10mM): 10-20%
SMILES: CC(C)CCC[C@@H](C)[C@H]1CC[C@H]2[C@@H]3CC=C4C[C@@H](O)CC[C@]4(C)[C@H]3CC[C@]12C [cholesterol]

effect on the reaction of the orange enzyme ([4]; water-soluble serum analytes): largely unaffected
SMILES: NC(N)=O [urea]
